Data taken from ChEMBL document CHEMBL6074686 (Eur J Med Chem, 2025).
pIC50: −log10 of the molar value. Calls of active or inactive are those of the source. No cut-off for these calls is given here.

What was measured:
[1] = test system: MCF7; experiment: Induction of apoptosis in human MCF7 cells assessed as upregulation of cleaved-PARP expression at 25 to 50 nM incubated for 24 hrs by Western blotting analysis; type: functional, cell-based; details: dose 25-50 nM
[2] = test system: A549; experiment: Antitumor activity against human A549 cells assessed as reduction in cell viability incubated for 72 hrs by CCK8 assay; type: functional, cell-based; details: A549, 72 h
[3] = test system: SK-OV-3; experiment: Inhibition of cell migration in human SK-OV-3 cells assessed as area of migrated cells at 20 nM incubated for 24 hrs by crystal violet staining based inverted microscopic analysis (reference value: 30.1 +/- 1.3 mm^3); type: functional
[4] = test system: SK-OV-3; experiment: Induction of cell cycle arrest in human SK-OV-3 cells assessed as increase in G2/M phase cells at 40 nM incubated for 24 hrs by PI staining based flow cytometric analysis (reference value: 24.6 +/- 2.0%); type: functional
[5] = test system: MCF7; experiment: Induction of apoptosis in human MCF7 cells assessed as upregulation of cleaved-caspase-3 expression incubated for 24 hrs by Western blotting analysis; type: functional, cell-based
[6] = test system: SK-OV-3; experiment: Inhibition of cell migration in human SK-OV-3 cells assessed as decrease in cell density at 25 to 50 nM incubated for 24 hrs by wound healing assay; type: functional, cell-based; details: dose 25-50 nM
[7] = test system: SK-OV-3; experiment: Induction of apoptosis in human SK-OV-3 cells assessed as increase in apoptotic cells incubated for 48 hrs by IncuCyte live-cell imaging analysis; type: functional, cell-based; details: dose 2.5-40 nM
[8] = test system: MCF7; experiment: Inhibition of colony formation in human MCF7 cells at 50 nM incubated for 72 hrs by crystal violet staining based assay relative to control; type: functional
[9] = test system: SK-OV-3; experiment: Inhibition of cell migration in human SK-OV-3 cells incubated for 24 hrs by Transwell assay; type: functional, cell-based; details: dose 10-20 nM
[10] = test system: MCF7; experiment: Inhibition of cell migration in human MCF7 cells assessed as area of migrated cells at 6.25 nM incubated for 24 hrs by crystal violet staining based inverted microscopic analysis (reference value: 18.5 +/- 0.3 mm^3); type: functional
[11] = test system: SK-OV-3; experiment: Inhibition of cell migration in human SK-OV-3 cells assessed as reduction in wound closure at 6.25 nM incubated for 24 hrs by wound healing assay (reference value: 21.8 +/- 7.6%); type: functional; details: SK-OV-3, 24 h, values are per cent of control
[12] = Toxicity in female BALB/c nude mouse xenografted with human SK-OV-3 cells assessed as drug tolerance by measuring lethargy at 30 mg/kg, administered via tail vein for 5 days and measured daily; type: organism-based; details: in vivo, iv, 120 h, time 5 day
[13] = test system: SK-OV-3; experiment: Inhibition of cell migration in human SK-OV-3 cells assessed as ratio of migrated cells at 5 nM incubated for 24 hrs by Transwell assay (reference value: 100 %); type: functional; set-up: scale not given: the % may be the effect or the level left
[14] = test system: MCF7; experiment: Inhibition of colony formation in human MCF7 cells at 25 nM incubated for 72 hrs by crystal violet staining based assay relative to control; type: functional
[15] = test system: SK-OV-3; experiment: Antitumor activity against human SK-OV-3 cells xenografted in female BALB/c nude mouse assessed as tumor growth inhibition at 10 mg/kg, […] via tail vein once every 2 to 3 days; type: functional; details: time 2-3 day, read-out: TGI
[16] = test system: MCF7; experiment: Inhibition of cell migration in human MCF7 cells assessed as wound closure at 10 nM incubated for 24 hrs by wound healing assay (reference value: 44.5 +/- 8.8%); type: functional; set-up: scale not given: the % may be the effect or the level left
[17] = test system: SK-OV-3; experiment: Inhibition of cell migration in human SK-OV-3 cells assessed as area of migrated cells at 1.25 nM incubated for 24 hrs by crystal violet staining based inverted microscopic analysis (reference value: 30.1 +/- 1.3 mm^3); type: functional
[18] = test system: SK-OV-3; experiment: Induction of cell cycle arrest in human SK-OV-3 cells assessed as increase in G2/M phase cells incubated for 24 hrs PI staining based flow cytometric analysis; type: functional; details: dose 2.5-40 nM
[19] = Toxicity in female BALB/c nude mouse xenografted with human SK-OV-3 cells assessed as pathological changes in kidney at 5 to 10 mg/kg, […] via tail vein once every 2 to 3 days by H and E staining based analysis; type: organism-based; details: in vivo, dose lower 5 mg/kg, time lower 2 day, dose upper 10 mg/kg, time upper 3 day
[20] = test system: SK-OV-3; experiment: Induction of cell cycle arrest in human SK-OV-3 cells assessed as increase in G2/M phase cells at 10 nM incubated for 24 hrs PI staining based flow cytometric analysis (reference value: 24.6 +/- 2.0%); type: functional
[21] = test system: SK-OV-3; experiment: Inhibition of cell migration in human SK-OV-3 cells assessed as area of migrated cells at 2.5 nM incubated for 24 hrs by crystal violet staining based inverted microscopic analysis (reference value: 30.1 +/- 1.3 mm^3); type: functional
[22] = test system: MCF7; experiment: Induction of apoptosis in human MCF7 cells assessed as downregulation of Bcl-2 expression incubated for 24 hrs by Western blotting analysis; type: functional, cell-based
[23] = Toxicity in female BALB/c nude mouse xenografted with human SK-OV-3 cells assessed as effect on body weight at 5 to 10 mg/kg, […] via tail vein once every 2 to 3 days; type: organism-based; details: in vivo, dose lower 5 mg/kg, time lower 2 day, dose upper 10 mg/kg, time upper 3 day
[24] = test system: SK-OV-3; experiment: Inhibition of cell migration in human SK-OV-3 cells assessed as reduction in wound closure at 3.125 nM incubated for 24 hrs by wound healing assay (reference value: 21.8 +/- 7.6%); type: functional; details: SK-OV-3, 24 h, values are per cent of control
[25] = Toxicity in female BALB/c nude mouse xenografted with human SK-OV-3 cells assessed as animal death at 15 mg/kg, administered via tail vein for 5 days and measured daily; type: organism-based; details: in vivo, iv, 120 h, time 5 day
[26] = test system: A549; experiment: Induction of cell cycle arrest in human A549 cells assessed as accumulation of cells at G2/M phase at 40 nM incubated for 24 hrs by PI staining based flow cytometric analysis relative to control; type: functional
[27] = test system: SK-OV-3; experiment: Antitumor activity against human SK-OV-3 cells assessed as reduction in cell viability incubated for 72 hrs by CCK8 assay; type: functional, cell-based; details: SK-OV-3, 72 h
[28] = test system: MCF7; experiment: Induction of apoptosis in human MCF7 cells assessed as increase in apoptotic cells at 6.25 to 100 nM incubated for 24 hrs by IncuCyte live-cell imaging analysis; type: functional, cell-based; details: dose 6.25-100 nM
[29] = test system: MCF7; experiment: Inhibition of cell migration in human MCF7 cells assessed as ratio of migrated cells at 50 nM incubated for 24 hrs by crystal violet staining based inverted microscopic analysis (reference value: 100%); type: functional; set-up: scale not given: the % may be the effect or the level left
[30] = test system: SK-OV-3; experiment: Induction of cell cycle arrest in human SK-OV-3 cells assessed as upregulation of Cyclin-B1 expression at 25 to 50 nM incubated for 24 hrs by Western blotting analysis; type: functional, cell-based; details: dose 25-50 nM
[31] = test system: SK-OV-3; experiment: Induction of cell cycle arrest in human SK-OV-3 cells assessed as increase in G2/M phase cells at 20 nM incubated for 24 hrs PI staining based flow cytometric analysis (reference value: 24.6 +/- 2.0%); type: functional
[32] = Toxicity in female BALB/c nude mouse xenografted with human SK-OV-3 cells assessed as drug tolerance by measuring body weight loss at 30 mg/kg, administered via tail vein for 5 days and measured daily; type: organism-based; details: in vivo, iv, 120 h, time 5 day
[33] = Toxicity in female BALB/c nude mouse xenografted with human SK-OV-3 cells assessed as pathological changes in heart at 5 to 10 mg/kg, […] via tail vein once every 2 to 3 days by H and E staining based analysis; type: organism-based; details: in vivo, dose lower 5 mg/kg, time lower 2 day, dose upper 10 mg/kg, time upper 3 day
[34] = test system: SK-OV-3; experiment: Inhibition of cell migration in human SK-OV-3 cells assessed as wound closure ratio at 3.125 nM incubated for 24 hrs by wound healing assay (reference value: 100%); type: functional; set-up: scale not given: the % may be the effect or the level left

Question: Which Activity [1] does the source give for CNc1nc(N2CCCc3cc(OC)ccc32)c2cc(F)ccc2n1 here?
Answer: The Activity was “Active”.

Question: What about the pIC50 [2] of the same compound?
Answer: Its pIC50 is 8.57.

Question: And the Activity [3]?
Answer: Its Activity is 3.6 mm3.

Question: What about the Activity [4] of the same compound?
Answer: Its Activity is 94.5%.

Question: What about the Activity [5] of the same compound?
Answer: The Activity was “Dose-dependent-effect”.

Question: What about the inhibition [6] of the same compound?
Answer: The inhibition was “Active”.

Question: What about the Activity [7] of the same compound?
Answer: Its Activity is “Dose-dependent-effect”.

Question: And the inhibition at 0.05 µM [8]?
Answer: The inhibition at 0.05 µM was 42.2%.

Question: And the inhibition [9]?
Answer: The inhibition was “Dose-dependent-effect”.

Question: What about the Activity [10] of the same compound?
Answer: Its Activity is 16.4 mm3.

Question: And the response, % of control at 0.00625 µM [11]?
Answer: The response, % of control at 0.00625 µM was 18.4%.

Question: What about the Activity [12] of the same compound?
Answer: Its Activity is “Toxic”.

Question: And the Activity [13]?
Answer: The Activity was 48.8%.

Question: What about the inhibition at 0.025 µM [14] of the same compound?
Answer: The inhibition at 0.025 µM was 32.8%.

Question: And the inhibition in vivo at 10 mg/kg [15]?
Answer: Its inhibition in vivo at 10 mg/kg is 46.2%.

Question: And the Activity [16]?
Answer: The Activity was 46.5%.

Question: And the Activity [17]?
Answer: Its Activity is 21.7 mm3.

Question: What about the Activity [18] of the same compound?
Answer: The Activity was “Dose-dependent-effect”.

Question: What about the Activity [19] of the same compound?
Answer: The Activity was “Non-toxic”.

Question: And the Activity [20]?
Answer: Its Activity is 64.5%.

Question: And the Activity [21]?
Answer: The Activity was 18.9 mm3.

Question: What about the Activity [22] of the same compound?
Answer: Its Activity is “Active”.

Question: What about the Activity [23] of the same compound?
Answer: The Activity was “Non-toxic”.

Question: And the response, % of control at 0.003125 µM [24]?
Answer: Its response, % of control at 0.003125 µM is 22.8%.

Question: And the Activity [25]?
Answer: Its Activity is “Non-toxic”.

Question: What about the Activity [26] of the same compound?
Answer: The Activity was 88.8%.

Question: And the pIC50 [27]?
Answer: The pIC50 was 9.10.

Question: What about the Activity [28] of the same compound?
Answer: The Activity was “Active”.

Question: And the Activity [29]?
Answer: The Activity was 11.7%.

Question: What about the Activity [30] of the same compound?
Answer: Its Activity is “inactive”.

Question: And the Activity [31]?
Answer: Its Activity is 90.6%.

Question: And the Activity [32]?
Answer: The Activity was “Toxic”.

Question: What about the Activity [33] of the same compound?
Answer: The Activity was “Non-toxic”.

Question: What about the Activity [34] of the same compound?
Answer: The Activity was 104.5%.
